The results in this text go back to ChEMBL document CHEMBL1136309, “Synthesis and SAR studies of potent HIV protease inhibitors containing novel dimethylphenoxyl acetates as P2 ligands” (Bioorg Med Chem Lett, 2003).

For assay [1], the system named is Human immunodeficiency virus 1. As to the kind of experiment: Antiviral activity was tested in absence of human serum in MT-4 cells (in vitro). As to conditions: Human immunodeficiency virus 1, MT4. The class given is functional, organism-based.
The subject of assay [2] is Human immunodeficiency virus 1. As to the kind of experiment: Antiviral activity was tested in presence of 50% human serum in MT-4 cells (in vitro). The class given is functional, organism-based. The note with it: Human immunodeficiency virus 1, MT4.
The target of assay [3] is Human immunodeficiency virus type 1 protease (Human immunodeficiency virus 1) (UniProt Q72874). As to the kind of experiment: Inhibitory activity against HIV protease at a compound concentration of 0.5 nM in MT-4 cells. The assay is classed as cell-based. As to conditions: MT4.
Assay [4] has the same target. Briefly: Inhibitory activity against HIV protease at a compound concentration of 12 nM in MT-4 cells. The class given is cell-based. As to conditions: MT4.
Assay [5] shares this target. As to the kind of experiment: Inhibitory activity against HIV protease at a compound concentration of 1 nM in MT-4 cells. The assay is classed as cell-based. The note with it: MT4.
Assay [6] has the same target. Briefly: Inhibitory activity against HIV protease at a compound concentration of 31 nM in MT-4 cells. The assay is classed as cell-based. As to conditions: MT4.
The target is the same in assay [7]. Briefly: Inhibitory activity against HIV protease at a compound concentration of 2.4 nM in MT-4 cells. The assay is classed as cell-based. As to conditions: MT4.

Regarding `Cc1cccc(CO)c1OCC(=O)N[C@@H](Cc1ccccc1)C[C@H](O)[C@H](Cc1ccccc1)NC(=O)O[C@H]1COC2OCCC21` (stereo not given in full), the results for the EC50 in assay [1] and in assay [2] were 37 nM and 197 nM, respectively. In assay [3], this molecule registered an inhibition of 88%.

`Cc1cc2[nH]c(O)nc2c(C)c1OCC(=O)N[C@@H](Cc1ccccc1)C[C@H](O)[C@H](Cc1ccccc1)NC(=O)O[C@H]1COC2OCCC21` (stereo not given in full): the concentration for a half-maximal effect (EC50) was 972 nM in assay [1] and 3110 nM in assay [2]. The inhibition in assay [3] turned out to be 85%.

Regarding `Cc1cc(N)cc(C)c1OCC(=O)N[C@@H](Cc1ccccc1)C[C@H](O)[C@H](Cc1ccccc1)NC(=O)O[C@H]1COC2OCCC21` (stereo not given in full), the EC50 stood at 9 nM in assay [1] and 31 nM in assay [2]. Also, in assay [3], the inhibition came to 78%.

On to `CNC(=O)c1cc(C)c(OCC(=O)N[C@@H](Cc2ccccc2)C[C@H](O)[C@H](Cc2ccccc2)NC(=O)O[C@H]2COC3OCCC32)c(C)c1` (stereo not given in full), for which the EC50 in assay [1] was 220 nM; in assay [2], 533 nM.

In turn, `O=C(COc1ccccc1)N[C@@H](Cc1ccccc1)C[C@H](O)[C@H](Cc1ccccc1)NC(=O)O[C@H]1COC2OCCC21` (stereo not given in full) had an inhibition in assay [3] of 61%.

On to `Cc1cc(OCCN2CCOCC2)cc(C)c1OCC(=O)N[C@@H](Cc1ccccc1)C[C@H](O)[C@H](Cc1ccccc1)NC(=O)O[C@H]1COC2OCCC21` (stereo not given in full), for which the EC50 in assay [1] was determined as 24 nM; in assay [2], 340 nM. Further, the inhibition in assay [3] stood at 77%.

Take `Cc1cc(C)c(OCC(=O)N[C@@H](Cc2ccccc2)C[C@H](O)[C@H](Cc2ccccc2)NC(=O)O[C@H]2COC3OCCC32)c(C)c1N` (stereo not given in full): the EC50 in assay [1] stood at 23 nM; in assay [2], 117 nM. In assay [3], this molecule registered an inhibition of 74%.

As to `Cc1ncnc(C)c1OCC(=O)N[C@@H](Cc1ccccc1)C[C@H](O)[C@H](Cc1ccccc1)NC(=O)O[C@H]1COC2OCCC21` (stereo not given in full), the EC50 in assay [1] is 815 nM; in assay [2], 1390 nM. Also, the inhibition in assay [3] amounted to 56%.

Turning to `Cc1cc(NS(C)(=O)=O)cc(C)c1OCC(=O)N[C@@H](Cc1ccccc1)[C@@H](O)C[C@H](Cc1ccccc1)NC(=O)O[C@H]1COC2OCCC21` (stereo not given in full), in assay [4], the inhibition was 50%.

On to `Cc1cc(N)cc(C)c1OCC(=O)N[C@@H](Cc1ccccc1)C[C@H](O)[C@H](Cc1ccccc1)NC(=O)OC1COC2OCCC12` (stereo not given in full), for which the EC50 in assay [1] came to 12 nM; in assay [2], 67 nM. The same molecule registered an inhibition in assay [3] of 70%.

Regarding `Cc1cc(C(=O)N(C)C)cc(C)c1OCC(=O)N[C@@H](Cc1ccccc1)C[C@H](O)[C@H](Cc1ccccc1)NC(=O)O[C@H]1COC2OCCC21` (stereo not given in full), the concentration for a half-maximal effect (EC50) in assay [1] worked out at 2310 nM; in assay [2], 11900 nM.

`COc1cccc(C)c1OCC(=O)N[C@@H](Cc1ccccc1)C[C@H](O)[C@H](Cc1ccccc1)NC(=O)O[C@H]1COC2OCCC21` (stereo not given in full): the EC50 amounted to 353 nM in assay [1] and 1380 nM in assay [2]. Also, the inhibition in assay [3] was 74%.

Regarding `Cc1ccc(O)c(C)c1OCC(=O)N[C@@H](Cc1ccccc1)C[C@H](O)[C@H](Cc1ccccc1)NC(=O)O[C@H]1COC2OCCC21` (stereo not given in full), the EC50 came to 7 nM in assay [1] and 98 nM in assay [2]. In assay [3], this molecule displayed an inhibition of 92%.

Turning to `Cc1cc(N(C)C)cc(C)c1OCC(=O)N[C@@H](Cc1ccccc1)C[C@H](O)[C@H](Cc1ccccc1)NC(=O)O[C@H]1COC2OCCC21` (stereo not given in full), the EC50 in assay [1] amounted to 160 nM; in assay [2] it was 2070 nM. This molecule also displayed an inhibition in assay [3] of 43%.

For `Cc1ccc(N)c(C)c1OCC(=O)N[C@@H](Cc1ccccc1)C[C@H](O)[C@H](Cc1ccccc1)NC(=O)O[C@H]1COC2OCCC21` (stereo not given in full), the EC50 was 5 nM in assay [1] and 35 nM in assay [2]. The same molecule came in with an inhibition in assay [3] of 87%.

On to `Cc1cc(N)cc(C)c1SCC(=O)N[C@@H](Cc1ccccc1)C[C@H](O)[C@H](Cc1ccccc1)NC(=O)O[C@H]1COC2OCCC21` (stereo not given in full), for which the EC50 in assay [1] is 5790 nM; in assay [2], 1040 nM. In assay [5], the inhibition turned out to be 56%.

`Cc1cc(N)c(N)c(C)c1OCC(=O)N[C@@H](Cc1ccccc1)C[C@H](O)[C@H](Cc1ccccc1)NC(=O)O[C@H]1COC2OCCC21` (stereo not given in full): the EC50 was determined as 644 nM in assay [1] and 1480 nM in assay [2]. In assay [3], this molecule showed an inhibition of 76%.

Turning to `Cc1cc([N+](=O)[O-])cc(C)c1OCC(=O)N[C@@H](Cc1ccccc1)C[C@H](O)[C@H](Cc1ccccc1)NC(=O)OC1COC2OCCC12` (stereo not given in full), the EC50 in assay [1] worked out at 927 nM; in assay [2] it was 8110 nM. In assay [3], this molecule yielded an inhibition of 53%.

Regarding `Cc1cc(N)cc(C)c1[S+]([O-])CC(=O)N[C@@H](Cc1ccccc1)C[C@H](O)[C@H](Cc1ccccc1)NC(=O)O[C@H]1COC2OCCC21` (stereo not given in full), the EC50 amounted to 37500 nM in assay [1] and 98400 nM in assay [2]. Besides, the inhibition in assay [6] was 50%.

In turn, `Cc1ccccc1OCC(=O)N[C@@H](Cc1ccccc1)C[C@H](O)[C@H](Cc1ccccc1)NC(=O)O[C@H]1COC2OCCC21` (stereo not given in full) showed an inhibition in assay [3] of 84%.

For `Cc1cc(N2COCC2=O)cc(C)c1OCC(=O)N[C@@H](Cc1ccccc1)C[C@H](O)[C@H](Cc1ccccc1)NC(=O)O[C@H]1COC2OCCC21` (stereo not given in full), the EC50 is 214 nM in assay [1] and 930 nM in assay [2]. This molecule also registered an inhibition in assay [3] of 74%.

Turning to `Cc1cccc(C)c1OCC(=O)N[C@@H](Cc1ccccc1)C[C@H](O)[C@H](Cc1ccccc1)NC(=O)O[C@H]1COC2OCCC21` (stereo not given in full), the EC50 in assay [1] stood at 41 nM; in assay [2] it was 300 nM. Also, the inhibition in assay [3] stood at 87%.

With `Cc1cc2[nH]nnc2c(C)c1OCC(=O)N[C@@H](Cc1ccccc1)C[C@H](O)[C@H](Cc1ccccc1)NC(=O)O[C@H]1COC2OCCC21` (stereo not given in full), the EC50 in assay [1] was 188 nM; in assay [2], 1880 nM. The molecule also returned an inhibition in assay [3] of 67%.

`Cc1cc(Cl)c(N)c(C)c1OCC(=O)N[C@@H](Cc1ccccc1)C[C@H](O)[C@H](Cc1ccccc1)NC(=O)O[C@H]1COC2OCCC21` (stereo not given in full): the results for the EC50 in assay [1] and in assay [2] were 62 nM and 659 nM, respectively. Besides, the inhibition in assay [3] turned out to be 86%.

In the case of `Cc1ccnc(C)c1OCC(=O)N[C@@H](Cc1ccccc1)C[C@H](O)[C@H](Cc1ccccc1)NC(=O)O[C@H]1COC2OCCC21` (stereo not given in full), the EC50 in assay [1] came to 184 nM; in assay [2], 438 nM. This molecule also registered an inhibition in assay [3] of 49%.

`CNc1cc(C)c(OCC(=O)N[C@@H](Cc2ccccc2)C[C@H](O)[C@H](Cc2ccccc2)NC(=O)OC2COC3OCCC23)c(C)c1` (stereo not given in full): the EC50 is 112 nM in assay [1] and 507 nM in assay [2]. The same molecule returned an inhibition in assay [3] of 64%.

`Cc1cc2nsnc2c(C)c1OCC(=O)N[C@@H](Cc1ccccc1)C[C@H](O)[C@H](Cc1ccccc1)NC(=O)O[C@H]1COC2OCCC21` (stereo not given in full): the EC50 is 621 nM in assay [1] and 5650 nM in assay [2]. In addition, the inhibition in assay [3] is 71%.

Consider `Cc1cc(N)cc(C)c1S(=O)(=O)CC(=O)N[C@@H](Cc1ccccc1)C[C@H](O)[C@H](Cc1ccccc1)NC(=O)O[C@H]1COC2OCCC21` (stereo not given in full), for which the EC50 is 10300 nM in assay [1] and 61800 nM in assay [2]. In addition, the inhibition in assay [4] worked out at 50%.

With `Cc1cc2oc(O)nc2c(C)c1OCC(=O)N[C@@H](Cc1ccccc1)C[C@H](O)[C@H](Cc1ccccc1)NC(=O)O[C@H]1COC2OCCC21` (stereo not given in full), the results for the EC50 in assay [1] and in assay [2] were 160 nM and 501 nM, respectively. In assay [3], this molecule came in with an inhibition of 61%.

For `Cc1cccc(C)c1OCC(=O)N[C@@H](Cc1ccccc1)[C@@H](O)C[C@H](Cc1ccccc1)NC(=O)OC1COC2OCCC12` (stereo not given in full), the EC50 in assay [1] was 61 nM; in assay [2], 272 nM. The same molecule came in with an inhibition in assay [3] of 91%.

For `Cc1cc(O)cc(C)c1OCC(=O)N[C@@H](Cc1ccccc1)C[C@H](O)[C@H](Cc1ccccc1)NC(=O)O[C@H]1COC2OCCC21` (stereo not given in full), the EC50 in assay [1] came to 32 nM; in assay [2], 76 nM. The molecule also had an inhibition in assay [3] of 82%.

For `Cc1cc(C(N)=O)cc(C)c1OCC(=O)N[C@@H](Cc1ccccc1)C[C@H](O)[C@H](Cc1ccccc1)NC(=O)O[C@H]1COC2OCCC21` (stereo not given in full), the concentration for a half-maximal effect (EC50) in assay [1] is 255 nM; in assay [2], 987 nM.

Consider `Cc1cc(F)cc(C)c1OCC(=O)N[C@@H](Cc1ccccc1)C[C@H](O)[C@H](Cc1ccccc1)NC(=O)O[C@H]1COC2OCCC21` (stereo not given in full), for which the results for the EC50 in assay [1] and in assay [2] were 268 nM and 866 nM, respectively. In assay [3], this molecule showed an inhibition of 69%.

Turning to `Cc1cc(C)c(OCC(=O)N[C@@H](Cc2ccccc2)C[C@H](O)[C@H](Cc2ccccc2)NC(=O)O[C@H]2COC3OCCC32)c(C)c1` (stereo not given in full), the values for the EC50 in assay [1] and in assay [2] were 205 nM and 479 nM, respectively. Also, the inhibition in assay [3] stood at 82%.

`Cc1cc(N)cc(C)c1OCC(=O)N[C@@H](Cc1ccccc1)C[C@H](O)[C@H](Cc1ccccc1)NC(=O)O[C@@H]1COC2OCCC21` (stereo not given in full): the EC50 was 47 nM in assay [1] and 129 nM in assay [2]. In addition, the inhibition in assay [3] was determined as 60%.

As for `CCOC(=O)c1cc(C)c(OCC(=O)N[C@@H](Cc2ccccc2)C[C@H](O)[C@H](Cc2ccccc2)NC(=O)O[C@H]2COC3OCCC32)c(C)c1` (stereo not given in full), the EC50 in assay [1] was found to be 106 nM; in assay [2] it was 3220 nM. Besides, the inhibition in assay [3] came to 84%.

On to `Cc1cccc(C)c1NCC(=O)N[C@@H](Cc1ccccc1)C[C@H](O)[C@H](Cc1ccccc1)NC(=O)O[C@H]1COC2OCCC21` (stereo not given in full), for which the EC50 in assay [1] was 253 nM; in assay [2], 2150 nM. This molecule returned an inhibition in assay [3] of 69%.

Consider `Cc1cccc(C)c1N(C)CC(=O)N[C@@H](Cc1ccccc1)C[C@H](O)[C@H](Cc1ccccc1)NC(=O)O[C@H]1COC2OCCC21` (stereo not given in full), for which the values for the half-maximal effective concentration (EC50) in assay [1] and in assay [2] were 2910 nM and 30200 nM, respectively. In addition, the inhibition in assay [7] amounted to 50%.

A word on the EC50: it is the concentration at which the effect is half-maximal. For orientation: inhibition means the change of the read-out against control, counted positive when it falls. Higher therefore signals strong suppression.
